Laboratory results as given in patent publication US20170066759A1, “AROMATIC 5-MEMBERED HETEROCYCLIC DERIVATIVE HAVING TRPV4-INHIBITING ACTIVITY” (Shionogi & Co., Ltd., priority 2012, published 2017).

molecular target: T1, human TRPV4 (hTRPV4/CHO cells) (Homo sapiens, UniProt Q9HBA0); test: Test Example 1: TRPV4 inhibitory activity (IC50 value), 4α-PDD stimulation, Fluo4 calcium fluorescence (FLIPR TETRA); type: cell-based; details: 1 μmol/L 4α-PDD, Fluo4-AM, read-out: TRPV4 inhibitory activity (IC50 value)
T1 construct: expressed in transfected cells; host or cells: CHO-K1
T1 sequence (Q9HBA0 whole entry): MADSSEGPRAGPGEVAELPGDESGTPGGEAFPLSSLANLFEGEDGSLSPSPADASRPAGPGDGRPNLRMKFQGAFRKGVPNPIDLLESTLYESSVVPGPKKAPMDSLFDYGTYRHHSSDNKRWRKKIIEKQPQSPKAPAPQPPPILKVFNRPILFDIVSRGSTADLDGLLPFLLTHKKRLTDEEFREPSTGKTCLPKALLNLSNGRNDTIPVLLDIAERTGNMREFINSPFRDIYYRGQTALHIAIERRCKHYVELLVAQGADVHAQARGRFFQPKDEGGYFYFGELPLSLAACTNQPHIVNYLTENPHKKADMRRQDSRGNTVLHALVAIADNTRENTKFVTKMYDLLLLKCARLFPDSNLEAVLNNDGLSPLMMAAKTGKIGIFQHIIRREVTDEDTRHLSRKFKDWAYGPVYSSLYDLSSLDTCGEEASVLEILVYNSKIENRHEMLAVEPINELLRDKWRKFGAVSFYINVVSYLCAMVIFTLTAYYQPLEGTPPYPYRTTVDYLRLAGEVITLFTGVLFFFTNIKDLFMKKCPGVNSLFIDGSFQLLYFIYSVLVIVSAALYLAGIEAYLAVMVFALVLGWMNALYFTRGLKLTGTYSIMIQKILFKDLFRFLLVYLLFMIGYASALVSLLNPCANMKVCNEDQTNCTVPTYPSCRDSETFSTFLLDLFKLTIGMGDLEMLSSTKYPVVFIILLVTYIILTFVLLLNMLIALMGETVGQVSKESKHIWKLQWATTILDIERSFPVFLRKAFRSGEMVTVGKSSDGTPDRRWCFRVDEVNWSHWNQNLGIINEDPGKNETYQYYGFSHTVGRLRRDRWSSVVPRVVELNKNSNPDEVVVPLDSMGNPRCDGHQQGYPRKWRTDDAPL

IC50 [nM] | Structure (SMILES)
22 | Cc1nc(CO)sc1-c1csc(NC(=O)C2CN(c3ccc(C(F)(F)F)cn3)C2)n1 [Compound I-297]

same assay, conditions: Test Example 1, 4α-PDD stimulation, read-out: Test 1 IC50

Structure (SMILES) | IC50 [nM]
Cc1nc(C)c(-c2csc(NC(=O)[C@H]3C[C@@H](c4ccccc4)CN3)n2)s1 [Compound I-193] | 1000 to 8000
Cc1nc(C)c(-c2nc(NC(=O)Cc3c(F)cccc3F)sc2-c2ccccc2O)s1 [Compound I-64] | 100 to 1000
Cc1nc(C)c(-c2csc(NC(=O)Cn3cc(Cl)cn3)n2)o1 [Compound I-140] | 1000 to 8000
Cc1nc(C(=O)NCCN(C)C)sc1-c1csc(NC(=O)Cc2c(F)cccc2F)n1 [Compound I-126] | 1000 to 8000
Cc1nc(C)c(-c2csc(NC(=O)[C@@H]3C[C@H](c4ccccc4)CN3C(=O)C(F)(F)F)n2)s1 [Compound I-271] | < 100
CCN(CC)Cc1nc(CO)sc1-c1csc(NC(=O)Cc2ccc(S(=O)(=O)C(F)(F)F)cc2)n1 [Compound I-236] | 100 to 1000
Cc1nc(C)c(-c2csc(NC(=O)C(O)c3c(F)cccc3F)n2)s1 (centres unmarked) [Compound I-103] | 1000 to 8000
Cc1nc(C)c(-c2csc(NC(=O)[C@@H]3C[C@@H](Oc4ccccc4)CN3C(=O)CO)n2)s1 [Compound I-252] | 1000 to 8000
Cc1nc(CO)sc1-c1csc(NC(=O)C2CN(c3ccc(C(F)(F)F)cn3)C2)n1 [Compound I-297] | < 100
Cc1nc(C)c(-c2csc(NC(=O)C3CN(C(=O)c4ccccc4)C3)n2)s1 [Compound I-256] | 1000 to 8000
Cc1nc(CO)sc1-c1csc(NC(=O)[C@@H]2C[C@@H](c3ccccc3)CN2C(=O)OC(C)(C)C)n1 [Compound I-277] | < 100
CO[C@H]1C[C@H](C(=O)Nc2nc(-c3sc(C)nc3C)cs2)C1 [Compound I-268] | 100 to 1000
COc1ccc(N2CC(C(=O)Nc3nc(-c4sc(CO)nc4C)cs3)CC2=O)cc1 (centres unmarked) [Compound I-200] | 1000 to 8000
Cc1nc(C)c(-c2csc(NC(=O)Cn3cc(-c4ccccc4N(C)C)cn3)n2)s1 [Compound I-169] | < 100
Cc1nc(C(C)O)sc1-c1csc(NC(=O)Cc2ccc(S(=O)(=O)C(F)(F)F)cc2)n1 (racemic) [Compound I-287] | < 100
Cc1nc(C)c(-c2csc(NC(=O)Cc3cccc(S(C)(=O)=O)c3)n2)s1 [Compound I-79] | 100 to 1000

Results, then the compound that gave them:

IC50 [nM] | Structure (SMILES)
100 to 1000 | Cc1nc(CO)sc1-c1csc(NC(=O)C2CN(S(=O)(=O)CCC(F)(F)F)C2)n1 [Compound I-433]
< 100 | O=C(Cc1ccc(S(=O)(=O)C(F)(F)F)cc1)Nc1nc(-c2sc(CO)nc2CCN2CCOCC2)cs1 [Compound I-375]
< 100 | Cc1nc(C(C)O)sc1-c1csc(NC(=O)[C@@H]2C[C@@H](c3ccccc3)CN2C(=O)C(F)(F)F)n1 (some centres unmarked) [Compound I-476]
1000 to 8000 | O=C(Nc1nc(-c2sc(CO)nc2CO)cs1)C1CC(OCC2CC2)C1 (centres unmarked) [Compound I-339]
100 to 1000 | Cc1nc(C)c(-c2csc(NC(=O)Cc3cccc(NC(=O)C(C)C)c3)n2)s1 [Compound I-415]
1000 to 8000 | Cc1nc(C)c(-c2csc(NC(Cc3ccc(Cl)cc3)C(=O)NCc3ccccc3)n2)s1 (racemic) [II-43]
100 to 1000 | NC(=O)c1nc(CO)c(-c2csc(NC(=O)C3CN(Cc4cccc(C(F)(F)F)c4)C3)n2)s1 [Compound I-324]
100 to 1000 | CN(Cc1nc(CO)sc1-c1csc(NC(=O)Cc2ccc(S(=O)(=O)C(F)(F)F)cc2)n1)C(=O)CO [Compound I-436]
< 100 | Cc1nc(C)c(-c2csc(NC(=O)C3(C)CN(c4ccc(C(F)(F)F)cc4)C3)n2)s1 [Compound I-496]
100 to 1000 | Cc1nc(C)c(-c2csc(NC(=O)CC3CN(c4ncc(C(F)(F)F)cn4)C3)n2)s1 [Compound I-401]
100 to 1000 | O=C(Nc1nc(-c2sc(CO)nc2CO)cs1)[C@H]1C[C@@H](OCc2ccc(Cl)cc2)C1 [Compound I-332]
< 100 | Cc1nc(C)c(-c2csc(Nc3cnccn3)n2)s1 [II-34]
< 100 | Cc1nc(CO)sc1-c1csc(NC(=O)CCc2ccc(Cl)cc2)n1 [Compound I-458]
100 to 1000 | Cc1nc(CS(=O)(=O)C(F)(F)F)c(-c2csc(NC(=O)Cc3ccc(S(=O)(=O)C(F)(F)F)cc3)n2)s1 [Compound I-486]
100 to 1000 | CNC(=N)c1nc(C)c(-c2csc(NC(=O)Cc3ccc(S(=O)(=O)C(F)(F)F)cc3)n2)s1 [Compound I-441]

molecular target: T1, human TRPV4 (hTRPV4/CHO cells); test: Test Example 4: TRPV4 inhibitory activity (Ki value), 4α-PDD stimulation, Fluo-3 calcium fluorescence (FDSS 3000); type: cell-based; details: 4α-PDD, Fluo-3, Ki calculated from IC50 and EC50 of 4α-PDD, read-out: TRPV4 inhibitory activity (Ki value)
Protocol: TRPV4 Inhibitory Activity (Ki Value)
For each compound, TRPV4 inhibitory activity was measured using cells.
(Method) The procedures of evaluating TRPV4 inhibitory activity of a compound are as follows.
(1) TRPV4 inhibitory activity was measured using CHO-K1 cells stably expressing human TRPV4 (hTRPV4/CHO cells).
(2) Cells were subcultured using the MEM-α medium (SIGMA M4526: 500 ml), FBS (HyCloneSH30070.03: 10%), L-Glutamine 200 mmol/L (GIBCO: 4 mmol/L), P/S (nacalai tesque: 1%), G418 (nacalai tesque: 1 mg/mL).
(3) The 96-well plates which hTRPV4/CHO cells were seeded at densities of 2×10^4 cells/well in the culture medium in the day before the experimental day, and cultured in a CO2 incubator in the presence of 5% CO2 at 37° C. for 24 hours was used as assay plates.
(4) Cells were washed with assay buffer (Hank's Balanced Salt Solution 9.8 g, 1 mol/L HEPES (pH7.5), 250 mmol/L probenecid).
(5) Fluo-3, fluorescent dye for Ca influx assay was added to each well, then the assay plate was incubated in a CO2 incubator in the presence of 5% CO2 at 37° C. for one hour (final conc.; 5 μmol/L Fluo-3).
(6) The assay plate was washed with the assay buffer, and the buffer was remained at 30 μL/well. Then the assay plate was incubated for 10 min at 37° C.
(7) 20 μL of diluted compound solution was added to each well of assay plate, and mixed with built-in Pipette and Mixer of the fluorescence analysis system FDSS 3000 (Hamamatsu Photonics).
(8) 50 μL of 4α-PDD solution (concluding 0.1% Pluronic F-127) was applied to each well of assay plate and mixed.
(9) The fluorescent intensity was measured by FDSS 3000 for 8 min from the point of time addition the compound solution, at Ex 480 nm, Em 540 nm wavelength.
TRPV4 inhibitory activity (Ki value) of a compound was calculated according to the following procedure.
(10) In the presence of the compound, the difference between maximal and minimal of fluorescent intensity value for 8 min from just before addition of 4α-PDD solution was calculated, and it was referred as Max-Min value. Max-Min value of the Ruthenium Red at 10 μM was defined as 100% inhibitory activity, Max-Min value in the absence of the compound was defined as 0% inhibitory activity. TRPV4 inhibitory activity of the compound was calculated by the following formula.
(1−(Max−Min value of the compound−100% inhibitory activity)/(0% inhibitory activity−100% inhibitory activity))×100
(11) By the following formula, inhibitory activity was calculated at 10 points with three fold serial dilution, in the final concentration of the compound from 10 μmol/L to 0.5 nmol/L. The IC50 value was calculated by dose-response curve.
100−[(fluorescent intensity in the presence of the compound−fluorescent intensity of back ground)/(total fluorescent intensity−fluorescent intensity of back ground)]×100
(12) In the presence of the compound, activity of 4α-PDD was measured at 9 points with three fold serial dilution from 20 μmol/L. Activity of 4α-PDD was calculated by the following formula.
(Max−Min value of the each 4α-PDD concentration−0% activity)/(100% activity−0% activity))×100
(13) Effective activity was calculated in 4α-PDD the above. The EC50 value was calculated by dose-response curve.
(14) The Ki value of a compound was calculated by the following formula.
Ki=IC50 value/1+([A]/EC50)
[A]: Concentration of agonist (nmol/L)

Ki [nM] | Structure (SMILES)
34.4 | Cc1nc(C)c(-c2csc(NC(=O)Cc3ccc(C(F)(F)F)c(F)c3)n2)s1 [Compound I-20]

same assay, conditions: Test Example 4, 4α-PDD stimulation, read-out: Test 4 Ki

Structure (SMILES) | Ki [nM]
Cc1nc(C)c(-c2csc(NC(=O)C3(C)CC3)n2)s1 [Compound I-28] | 100 to 1000
Cc1nc(C)c(-c2csc(NC(=O)c3ccc(Br)cc3)n2)s1 [Compound I-232] | 100 to 1000
Cc1nc(C)c(-c2csc(NC(=O)CC#N)n2)s1 [Compound I-40] | 100 to 1000
CCCCCCCC(=O)Nc1nc(-c2sc(C)nc2C)cs1 [Compound I-221] | < 100
CCCC(=O)Nc1nc(-c2sc(C)nc2C)cs1 [Compound I-219] | 100 to 1000
Cc1nc(C)c(-c2csc(NC(=O)CCC(F)(F)F)n2)s1 [Compound I-38] | < 100
Cc1nc(C)c(-c2csc(NC(=O)c3ccccc3)n2)s1 [Compound I-234] | 1000 to 3000
Cc1nc(C)c(-c2csc(NC(=O)C(C)Oc3ccc(Cl)cc3)n2)s1 (centres unmarked) [Compound I-12] | 100 to 1000
Cc1nc(C)c(-c2csc(NC(=O)C(F)c3ccccc3)n2)s1 (centres unmarked) [Compound I-8] | 100 to 1000
Cc1nc(C)c(-c2csc(NC(=O)CC3CCC3)n2)s1 [Compound I-54] | < 100
Cc1nc(C)c(-c2csc(NC(=O)CCc3ccccc3)n2)s1 [Compound I-228] | 100 to 1000
C=C(C)c1ncc(-c2csc(NC(=O)Cc3ccc(S(=O)(=O)C(F)(F)F)cc3)n2)s1 [Compound I-25] | 100 to 1000
Cc1nc(C)c(-c2csc(NC(=O)C3(O)CC3)n2)s1 [Compound I-26] | 100 to 1000
Cc1nc(C)c(-c2csc(NC(=O)Cc3c(F)cccc3F)n2)o1 [Compound I-58] | < 100
CCCCCC(=O)Nc1nc(-c2sc(C)nc2C)cs1 [Compound I-222] | < 100
CCCCCCCCCCCC(=O)Nc1nc(-c2sc(C)nc2C)cs1 [Compound I-220] | 100 to 1000
Cc1nc(C)c(-c2csc(NC(=O)Nc3ccc(Br)cc3)n2)s1 [Compound I-233] | 1000 to 3000
Cc1nc(C)c(-c2csc(NC(=O)[C@H]3CC[C@H](Cl)C3)n2)s1 (racemic) [Compound I-55] | < 100
Cc1nc(C)c(-c2csc(NC(=O)[C@H]3CC[C@H](S(=O)(=O)CC(F)(F)F)C3)n2)s1 (racemic) [Compound I-57] | 100 to 1000
Cc1nc(C)c(-c2csc(NC(=O)C(C)(C)Oc3ccc(Cl)cc3)n2)s1 [Compound I-11] | 100 to 1000
Cc1nc(C)c(-c2csc(NC(=O)Cc3ccc(Br)cc3)n2)o1 [Compound I-231] | 100 to 1000
Cc1nc(C)c(-c2csc(NC(=O)Cc3ccc(C(F)(F)F)c(F)c3)n2)s1 [Compound I-20] | < 100
Cc1nc(C)c(-c2csc(NC(=O)[C@H]3CC[C@H](C#N)C3)n2)s1 (racemic) [Compound I-56] | 100 to 1000
Cc1nc(C)c(-c2csc(NC(=O)Cc3ccc(Cl)cc3)n2)s1 [Compound I-230] | < 100
Cc1nc(C)c(-c2csc(NC(=O)Cc3ccc(OC(F)(F)F)cc3)n2)s1 [Compound I-21] | < 100

Second part, the compound after the results:

Ki [nM] | Structure (SMILES)
100 to 1000 | Cc1nc(C)c(-c2csc(Nc3ccccc3)n2)s1 [II-30]
100 to 1000 | O=C(Nc1nc(-c2sc(Cl)nc2Cl)cs1)C1CCC(F)(F)C1 (centres unmarked) [Compound I-535]
100 to 1000 | Cc1nc(C)c(-c2csc(Nc3ccc(F)cc3)n2)s1 [II-27]
100 to 1000 | Cc1nc(C)c(-c2csc(Nc3ccc(N(C)C)cc3)n2)s1 [II-28]
